Test [1] has as its target T1, p53-Y220C mutant protein (Homo sapiens, UniProt P04637, Y220C).
T1 construct: The recombinant Y220C p53 DBD protein with his-tag
The test is described as follows: In vitro DNA binding activity assay (TR-FRET). To be noted: concentration required to increase the binding activity of protein to DNA by 50%. The test is classed as biochemical. In outline:
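SC150, the compound concentration increasing p53-Y220C DNA binding by 50% relative to vehicle, came from background-corrected 665/615 nm TR-FRET ratios. His-tagged DBD and compound were preincubated 60 min at RT before biotin-DNA plus Eu-anti-His/streptavidin-d2 detection overnight in the dark.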
(In general: In TR-FRET formats the signal depends on donor and acceptor labels being close together.)

In test [2] the test system is NUGC-3 cells. The test is described as follows: NUGC-3 cell proliferation assay (CTG, 7 days). It counts as cell-based, human. To be noted: Homo sapiens, NUGC-3, 168 h, NUGC-3 cell proliferation, 7 days, CTG; read-out: IC50. As to the method:
The cells were cultured in strict accordance with ATCC requirements.
Cell culture medium: 1640 culture medium, 10% serum, 1% penicillin + streptomycin.
Culture conditions: 37°C, 95% air, 5% carbon dioxide.
Compounds (20 mM) were subjected to gradient dilution in DMSO: 10 gradients, 3-fold dilution, duplicate wells.
Positive and negative controls (100% dimethyl sulfoxide) were prepared.
The compounds that were gradient diluted with DMSO and positive and negative controls (1st and 2nd step), each 75 nL, were transferred to 384-well cell culture plates by Echo550.
The cells were washed twice with PBS, digested with trypsin, and centrifuged for cell counting.
The experiment can only be carried out when the cell viability is above 90%.
The cells were plated into 384-well cell culture plates, with 200 (NUGC-3) cells and 30 µL of culture medium per well.
The 384-well microplate was placed in a cell culture incubator for 7 days.
30 µL of CTG detection reagent was added to the 384-well microplate.
The 384-well microplate was incubated for 30 min at 37°C, 5% carbon dioxide in the dark.
The reading was performed by a multi-functional microplate reader Envision.
% Inhibition is calculated as follows: % Inhibition = 100−(Signalcmpd−SignalAve_BL)/(SignalAve_VC−SignalAve_BL)*100 [formula] • Signalcmpd: Average signal of the compound in the cell plate • Signalave_vc: Average signal of the negative control in the cell plate • Signalave_BL: Average signal of the blank wells in the cell plate
IC50 was calculated by fitting % inhibition and compound concentration logarithmically to a nonlinear regression (dose response - variable slope) using Graphpad 8.0. Table 2 IC50 of selected compounds in NUGC-3 cell proliferation assay

In the case of `CCc1ccc(C(=O)NCC#Cc2nn3c(N[C@@H]4CCN(C)C[C@@H]4F)cccc3c2CC(F)(F)F)cn1` [Compound 331, 6-ethyl-N-[3-(7-{[(3S,4R)-3-fluoro-1-methylpiperidin-4-yl]amino}-3-(2,2,2-trifluoroethyl)pyrazolo[1,5-a]pyridin-2-yl)prop-2-yn-1-yl]pyridine-3-carboxamide], in test [1], the SC150 is listed as 36 nM. Besides, the IC50 in test [2] was 1.72 µM.

For `CCN1CC[C@@H](Nc2cccc3c(CC(F)(F)F)c(C#CCNC(=O)c4cnn(CC)c4N)nn23)[C@@H](F)C1` [Compound 364, 5-amino-1-ethyl-N-(3-(7-{[(3S,4R)-1-ethyl-3-fluoropiperidin-4-yl]amino}-3-(2,2,2-trifluoroethyl)pyrazolo[1,5-a]pyridin-2-yl)prop-2-yn-1-yl)-1H-pyrazole-4-carboxamide], the IC50 in test [2] is 0.154 µM.

`Cc1cc(C(=O)NCC#Cc2nn3c(N[C@@H]4CCN(C)C[C@@H]4F)cccc3c2CC(F)(F)F)c[nH]1` [Compound 272, N-[3-(7-{[(3S,4R)-3-fluoro-1-methylpiperidin-4-yl]amino}-3-(2,2,2-trifluoroethyl)pyrazolo[1,5-a]pyridin-2-yl)prop-2-yn-1-yl]-5-methyl-1H-pyrrole-3-carboxamide]: the SC150 in test [1] turned out to be 13 nM. Also, the IC50 in test [2] came to 1.23 µM.

Regarding `CN1CC[C@@H](Nc2cccc3c(CC(F)(F)F)c(C#CCNC(=O)c4ccccc4)nn23)[C@@H](F)C1` [Compound 069, N-[3-(7-{[(3S,4R)-3-fluoro-1-methylpiperidin-4-yl]amino}-3-(2,2,2-trifluoroethyl)pyrazolo[1,5-a]pyridin-2-yl)prop-2-yn-1-yl]benzamide], in test [2], the IC50 was 2.85 µM.

For the compound `CN1CC[C@@H](Nc2cccc3c(CC(F)(F)F)c(C#CCNC(=O)c4coc(C(C)(C)C)n4)nn23)[C@@H](F)C1` [Compound 090, 2-tert-butyl-N-[3-(7-{[(3S,4R)-3-fluoro-1-methylpiperidin-4-yl]amino}-3-(2,2,2-trifluoroethyl)pyrazolo[1,5-a]pyridin-2-yl)prop-2-yn-1-yl]-1,3-oxazole-4-carboxamide], in test [2], the IC50 turned out to be 6.87 µM.

Regarding `COc1ccc(C(=O)NCC#Cc2nn3c(N[C@@H]4CCN(C)C[C@@H]4F)cccc3c2CC(F)(F)F)cc1` [Compound 070, N-[3-(7-{[(3S,4R)-3-fluoro-1-methylpiperidin-4-yl]amino}-3-(2,2,2-trifluoroethyl)pyrazolo[1,5-a]pyridin-2-yl)prop-2-yn-1-yl]-4-methoxybenzamide], the IC50 in test [2] stood at 3.32 µM.

On to `CN1CC[C@@H](Nc2cccc3c(CC(F)(F)F)c(C#CCNC(=O)c4cnc(C(C)(C)C)s4)nn23)[C@@H](F)C1` [Compound 089, 2-tert-butyl-N-[3-(7-{[(3S,4R)-3-fluoro-1-methylpiperidin-4-yl]amino}-3-(2,2,2-trifluoroethyl)pyrazolo[1,5-a]pyridin-2-yl)prop-2-yn-1-yl]-1,3-thiazole-5-carboxamide], for which the IC50 in test [2] was determined as 8.06 µM.

Take `CN1CC[C@@H](Nc2cccc3c(CC(F)(F)F)c(C#CCNC(=O)c4csc(C(C)(C)C)n4)nn23)[C@@H](F)C1` [Compound 088, 2-tert-butyl-N-[3-(7-{[(3S,4R)-3-fluoro-1-methylpiperidin-4-yl]amino}-3-(2,2,2-trifluoroethyl)pyrazolo[1,5-a]pyridin-2-yl)prop-2-yn-1-yl]-1,3-thiazole-4-carboxamide]: the IC50 in test [2] is 7.11 µM.

Regarding `CN1CC[C@@H](Nc2cccc3c(CC(F)(F)F)c(C#CCNC(=O)c4nnn(C(C)(C)C)n4)nn23)[C@@H](F)C1` [Compound 145, 2-tert-butyl-N-[3-(7-{[(3S,4R)-3-fluoro-1-methylpiperidin-4-yl]amino}-3-(2,2,2-trifluoroethyl)pyrazolo[1,5-a]pyridin-2-yl)prop-2-yn-1-yl]-2H-tetrazole-5-carboxamide], the SC150 in test [1] worked out at 50 nM.

In test [1], `CN1CC2CCC(C1)C2Nc1cccc2c(CC(F)(F)F)c(C#CCNC(=O)c3cnn(C(C)(C)C)c3N)nn12` (stereo not drawn) [Compound 368, 5-amino-1-(tert-butyl)-N-(3-(7-((3-methyl-3-azabicyclo[3.2.1]octan-8-yl)amino)-3-(2,2,2-trifluoroethyl)pyrazolo[1,5-a]pyridin-2-yl)prop-2-yn-1-yl)-1H-pyrazole-4-carboxamide] came in with an SC150 of 57 nM.

As for `CN1CC[C@@H](Nc2cccc3c(CC(F)(F)F)c(C#CCNC(=O)C4CC45CC5)nn23)[C@@H](F)C1` (stereo partly drawn) [Compound 241, N-[3-(7-{[(3S,4R)-3-fluoro-1-methylpiperidin-4-yl]amino}-3-(2,2,2-trifluoroethyl)pyrazolo[1,5-a]pyridin-2-yl)prop-2-yn-1-yl]spiro[2.2]pentane-1-carboxamide], the SC150 in test [1] came out at 82 nM.

As for `CN1CC[C@@H](Nc2cccc3c(CC(F)(F)F)c(C#CCNC(=O)c4cn(CC5CCCC5)nc4N)nn23)[C@@H](F)C1` [Compound 349], in test [1], the SC150 is 12 nM.

As to `CN1CC[C@@H](Nc2cccc3c(CC(F)(F)F)c(C#CCNC(=O)c4cnn(C5CCOCC5)c4)nn23)[C@@H](F)C1` [Compound 013, N-[3-(7-{[(3S,4R)-3-fluoro-1-methylpiperidin-4-yl]amino}-3-(2,2,2-trifluoroethyl)pyrazolo[1,5-a]pyridin-2-yl)prop-2-yn-1-yl]-1-((tetrahydro-2H-pyran-4-yl))-1H-pyrazole-4-carboxamide], the SC150 in test [1] stood at 7 nM.

`CN1CC[C@@H](Nc2cccc3c(CC(F)(F)F)c(C#CCNC(=O)c4cnn(CC5CCCC5)c4N)nn23)[C@@H](F)C1` [Compound 285]: the SC150 in test [1] was determined as 28 nM.

In test [1], `CN1CC[C@@H](Nc2cccc3c(CC(F)(F)F)c(C#CCNC(=O)c4cnn(C)n4)nn23)[C@@H](F)C1` [Compound 325, N-[3-(7-{[(3S,4R)-3-fluoro-1-methylpiperidin-4-yl]amino}-3-(2,2,2-trifluoroethyl)pyrazolo[1,5-a]pyridin-2-yl)prop-2-yn-1-yl]-2-methyl-2H-1,2,3-triazole-4-carboxamide] registered an SC150 of 35 nM.

Compound `CC(C)c1cc(C(=O)NCC#Cc2nn3c(N[C@@H]4CCN(C)C[C@@H]4F)cccc3c2CC(F)(F)F)no1` [Compound 321, N-[3-(7-{[(3S,4R)-3-fluoro-1-methylpiperidin-4-yl]amino}-3-(2,2,2-trifluoroethyl)pyrazolo[1,5-a]pyridin-2-yl)prop-2-yn-1-yl]-5-isopropylisoxazole-3-carboxamide] gave an SC150 in test [1] of 99 nM.

As for `COc1ccccc1C(=O)NCC#Cc1nn2c(N[C@@H]3CCN(C)C[C@@H]3F)cccc2c1CC(F)(F)F` [Compound 071, N-[3-(7-{[(3S,4R)-3-fluoro-1-methylpiperidin-4-yl]amino}-3-(2,2,2-trifluoroethyl)pyrazolo[1,5-a]pyridin-2-yl)prop-2-yn-1-yl]-2-methoxybenzamide], the IC50 in test [2] came to 4.56 µM.

In test [1], `CN1CC[C@@H](Nc2cccc3c(CC(F)(F)F)c(C#CCNC(=O)c4ccn5c4CCC5)nn23)[C@@H](F)C1` [Compound 302, N-[3-(7-{[(3S,4R)-3-fluoro-1-methylpiperidin-4-yl]amino}-3-(2,2,2-trifluoroethyl)pyrazolo[1,5-a]pyridin-2-yl)prop-2-yn-1-yl]-2,3-dihydro-1H-pyrrolizine-7-carboxamide] showed an SC150 of 25 nM.

`CN1CCCC(Nc2cccc3c(CC(F)(F)F)c(C#CCNC(=O)c4cnn(C(C)(C)C)c4N)nn23)CC1` (single isomer, unassigned) [Compound 369-B, 5-amino-1-tert-butyl-N-(3-(7-[(1-methylazepan-4-yl)amino]-3-(2,2,2-trifluoroethyl)pyrazolo[1,5-a]pyridin-2-yl)prop-2-yn-1-yl)-1H-pyrazole-4-carboxamide] returned an SC150 in test [1] of 5 nM.

Turning to `CN1CCC2(CC1)CC(Nc1cccc3c(CC(F)(F)F)c(C#CCNC(=O)c4cnn(C(C)(C)C)c4N)nn13)C2` [Compound 367], the SC150 in test [1] came to 27 nM.

For the compound `CN1CC[C@@H](Nc2cccc3c(CC(F)(F)F)c(C#CCNC(=O)C4C5COCC54)nn23)[C@@H](F)C1` (stereo partly drawn) [Compound 240, N-[3-(7-{[(3S,4R)-3-fluoro-1-methylpiperidin-4-yl]amino}-3-(2,2,2-trifluoroethyl)pyrazolo[1,5-a]pyridin-2-yl)prop-2-yn-1-yl]-3-oxabicyclo[3.1.0]hexane-6-carboxamide], in test [1], the SC150 was 75 nM.

In test [1], `CN1CC[C@@H](Nc2cccc3c(CC(F)(F)F)c(C#CCNC(=O)c4cccc(C(C)(C)O)c4)nn23)[C@@H](F)C1` [Compound 334, N-[3-(7-{[(3S,4R)-3-fluoro-1-methylpiperidin-4-yl]amino}-3-(2,2,2-trifluoroethyl)pyrazolo[1,5-a]pyridin-2-yl)prop-2-yn-1-yl)-3-(2-hydroxyprop-2-yl)benzamide] came in with an SC150 of 33 nM.

As usually defined, the IC50 is the concentration that gives 50% inhibition.

These data come from patent EP4737449A1 (Changchun Genescience Pharmaceutical Co., Ltd., priority 2023, dated 2025).
